Measured values taken from patent US20020115642A1, “Beta-lactam antibiotics” (priority 2000, published 2002).
Converted amounts (≈) assume the structure as drawn. Where two headings read alike, the source gives them in different places.

Assays:
Assay in all cases: Susceptibility testing (MIC, modified NCCLS method)
[1] = test system: E. coli N; type: cell-based, Escherichia coli; details: E. coli (N)
Method: (§1) The NCCLS (National Committee for Clinical Laboratory Standards) method to determine MIC's of antimicrobial compounds was modified for high-throughput screening. All stocks of tested compounds were prepared in either water or in dimethylsulfoxide (DMSO), depending on the solubility. […] Briefly 20 2-fold serial dilutions of testing compounds from the highest concentration were made in a 384-well microtiter plate. Each well was inoculated with testing bacteria in broth to a final concentration of approximately 1-1.5×10^6 cells/ml. Bacterial growth was determined by the increase of optical density at 600 nm using a microplate reader (Tecan SpectraFluor Plus).

[2] = test system: E. coli/TEM-1; type: cell-based, Escherichia coli
Method: as §1

[3] = test system: Staphylococcus aureus; type: cell-based
Method: as §1

[4] = test system: E. faecalis; type: cell-based, Enterococcus faecalis
Method: as §1

[5] = test system: E. cloacae; type: cell-based, Enterobacter cloacae; details: E. cloacae ATCC 23355
Method: as §1

[6] = test system: E. aerogenes; type: cell-based, Enterobacter aerogenes; details: E. aerogenes ATCC 35028
Method: as §1

[7] = test system: K. pneumoniae; type: cell-based, Klebsiella pneumoniae
Method: as §1

[8] = test system: P. aeruginosa; type: cell-based, Pseudomonas aeruginosa
Method: as §1

[9] = Escherichia coli, read-out: MIC
[10] = Staphylococcus aureus, ATCC11632, S. aureus ATCC 11632, read-out: MIC
[11] = Staphylococcus aureus, ATCC33594, S. aureus ATCC 33594, read-out: MIC
[12] = Staphylococcus aureus, ATCC700260, S. aureus ATCC 700260, read-out: MIC
[13] = Staphylococcus aureus, ATCC700699, S. aureus ATCC 700699, read-out: MIC
[14] = Enterococcus faecalis, ATCC49757, E. faecalis ATCC 49757, read-out: MIC
[15] = Enterococcus faecalis, ATCC700802, E. faecalis ATCC 700802, read-out: MIC
[16] = Enterobacter cloacae, ATCC23355, read-out: MIC
[17] = Klebsiella aerogenes, ATCC35028, read-out: MIC
[18] = Klebsiella pneumoniae, ATCC51503, K. pneumoniae ATCC 51503, read-out: MIC
[19] = Klebsiella pneumoniae, ATCC700721, K. pneumoniae ATCC 700721, read-out: MIC
[20] = Pseudomonas aeruginosa, ATCC21726, P. aeruginosa ATCC 21726, read-out: MIC
[21] = Pseudomonas aeruginosa, ATCC29872, P. aeruginosa ATCC 29872, read-out: MIC

Row | Compound | MIC [1] [µg/mL] | MIC ([2]; E. coli/Tem-1) [µg/mL] | MIC ([3]; S. aureus ATCC 11632) [ng/mL] | MIC ([3]; S. aureus ATCC 33594) [ng/mL] | MIC ([3]; S. aureus ATCC 700260) [ng/mL] | MIC ([3]; S. aureus ATCC 700699) [ng/mL] | MIC ([4]; E. faecalis ATCC 49757) [µg/mL] | MIC ([4]; E. faecalis ATCC 700802) [µg/mL] | MIC [5] [µg/mL] | MIC [6] [µg/mL] | MIC ([7]; K. pneumoniae ATCC 51503) [µg/mL] | MIC ([7]; K. pneumoniae ATCC 700721) [µg/mL] | MIC ([8]; P. aeruginosa ATCC 21726) [µg/mL] | MIC ([8]; P. aeruginosa ATCC 29872) [µg/mL] | further results
1 | Cc1nnc(SCC(=O)Nc2ncc(CC(=O)NC3C(=O)N4C(C(=O)O)=C(COc5cc(Cl)ccc5Oc5ccc(Cl)cc5Cl)CSC34)s2)s1 (centres unmarked) [Compound 47] | 2 (≈ 2.46 µM) | 0.25 (≈ 0.307 µM) | >32000 | 63 (≈ 0.0774 µM) | 8000 (≈ 9.83 µM) | >32000 | >32 | >32 | >32 | >32 | >32 | 8 (≈ 9.83 µM) | >32 | >32 | MIC ([3]; S. aureus ATCC 33591): 125 ng/mL (≈ 0.154 µM)
2 | NC(C(=O)NC1C(=O)N2C(C(=O)O)=C(COc3cc(Cl)ccc3Oc3ccc(Cl)cc3Cl)CSC12)c1ccccc1 (centres unmarked) [Compound 38, 3-(2-(2,4-Dichlorophenoxy)-5-chlorophenoxy)methyl-7-(1-phenyl-2-aminoacetamido)-3-cephem-4-carboxylic acid] | 0.031 (≈ 0.0488 µM) | 0.015 (≈ 0.0236 µM) | 62 (≈ 0.0976 µM) | 62 (≈ 0.0976 µM) | 0.015 (≈ 2.36e-05 µM) | 0.015 (≈ 2.36e-05 µM) | 15.9 (≈ 25 µM) | 15.9 (≈ 25 µM) | 1.98 (≈ 3.12 µM) | 1.98 (≈ 3.12 µM) | 1.98 (≈ 3.12 µM) | – | >15.9 | >15.9 | –
3 | O=C(Cn1cnnn1)Nc1ncc(CC(=O)NC2C(=O)N3C(C(=O)O)=C(COc4cc(Cl)ccc4Oc4ccc(Cl)cc4Cl)CS[C@H]23)s1 (some centres unmarked) [Compound 43] | 2 (≈ 2.66 µM) | 0.25 (≈ 0.332 µM) | 32000 (≈ 42.6 µM) | 63 (≈ 0.0838 µM) | 8000 (≈ 10.6 µM) | 32000 (≈ 42.6 µM) | 32 (≈ 42.6 µM) | 32 (≈ 42.6 µM) | 32 (≈ 42.6 µM) | 32 (≈ 42.6 µM) | 32 (≈ 42.6 µM) | 4 (≈ 5.32 µM) | >32 | >32 | MIC ([3]; S. aureus ATCC 33591): 125 ng/mL (≈ 0.166 µM)
4 | O=C(Cc1cccs1)NC1C(=O)N2C(C(=O)O)C(COC(=O)Oc3cc(Cl)ccc3Oc3ccc(Cl)cc3Cl)=CS[C@H]12 (some centres unmarked) [Compound 15, 3-((2-(2,4-Dichlorophenoxy)-5-chlorophenoxy)carbonyloxy)methyl-7-(2-thienylacetamido)-2-cephem-4-carboxylic acid] | – | – | – | – | – | – | – | – | – | – | – | – | – | – | MIC [1, 9]: 0.008 µg/mL (≈ 0.0119 µM); MIC ([2]; Escherichia coli): 0.0031 µg/mL (≈ 0.00463 µM); MIC [3, 10]: 610 ng/mL (≈ 0.911 µM); MIC [3, 11]: 61 ng/mL (≈ 0.0911 µM); MIC [3, 12]: 61 ng/mL (≈ 0.0911 µM); MIC [3, 13]: 61 ng/mL (≈ 0.0911 µM); MIC [4, 14]: > 15.7 µg/mL; MIC [4, 15]: 15.7 µg/mL (≈ 23.4 µM); MIC [5, 16]: 0.25 µg/mL (≈ 0.373 µM); MIC [6, 17]: 0.98 µg/mL (≈ 1.46 µM); MIC [7, 18]: 1.96 µg/mL (≈ 2.93 µM); MIC [7, 19]: 1.96 µg/mL (≈ 2.93 µM); MIC [8, 20]: > 15.7 µg/mL; MIC [8, 21]: > 15.7 µg/mL
5 | 3-(2-(2,4-Dichlorophenoxy)-5-chlorophenoxy)methyl-7-(1-phenyl-2-aminoacetamido)-3-cephem-4-carboxylic acid [Compound 37] | 4 | 0.12 | – | – | 3.9 | – | – | – | – | – | – | 8 | >16 | – | –
6 | NC(C(=O)NC1C(=O)N2C(C(=O)O)=C(COc3cc(Cl)ccc3Oc3ccc(Cl)cc3Cl)CS[C@H]12)c1ccc(O)cc1 (some centres unmarked) [Compound 41, 3-(2-(2,4-Dichlorophenoxy)-5-chlorophenoxy)methyl-7-[2-amino-2-(4-hydroxy-phenyl)acetamido)-3-cephem-4-carboxylic acid] | – | – | – | – | – | – | – | – | – | – | – | – | – | – | MIC [1, 9]: 0.25 µg/mL (≈ 0.384 µM); MIC [3, 10]: 63 ng/mL (≈ 0.0968 µM); MIC [3, 11]: 63 ng/mL (≈ 0.0968 µM); MIC [3, 12]: 63 ng/mL (≈ 0.0968 µM); MIC [3, 13]: 63 ng/mL (≈ 0.0968 µM); MIC [4, 14]: 32 µg/mL (≈ 49.2 µM); MIC [4, 15]: 32 µg/mL (≈ 49.2 µM); MIC [5, 16]: 1 µg/mL (≈ 1.54 µM); MIC [6, 17]: 4 µg/mL (≈ 6.15 µM); MIC [7, 18]: 8 µg/mL (≈ 12.3 µM); MIC [7, 19]: 8 µg/mL (≈ 12.3 µM); MIC [8, 20]: > 32 µg/mL; MIC [8, 21]: > 32 µg/mL
7 | O=C(Cc1cccs1)NC1C(=O)N2C(C(=O)O)=C(CC=COc3cc(Cl)ccc3Oc3ccc(Cl)cc3Cl)CSC12 (centres unmarked) [Compound 24, 3-(1-(2-(2,4-Dichlorophenoxy)-5-chlorophenoxy)-3-propenyl)-7-(2-thienylacetamido)-3-cephem-4-carboxylic acid] | 0.26 (≈ 0.399 µM) | 0.016 (≈ 0.0245 µM) | 65 (≈ 0.0997 µM) | 65 (≈ 0.0997 µM) | 0.01 (≈ 1.53e-05 µM) | 32 (≈ 0.0491 µM) | 4.14 (≈ 6.35 µM) | 8.28 (≈ 12.7 µM) | 2.07 (≈ 3.17 µM) | 4.14 (≈ 6.35 µM) | 2.07 (≈ 3.17 µM) | 2.07 (≈ 3.17 µM) | >16.6 | >16.6 | –
